Key:
Assay in all cases: Kinase panel
Type in all cases: biochemical
Settings in all cases: read-out: % Residual Activity
Abl (H396P) (h) = target: T1, Abl (H396P) (h) (Homo sapiens, UniProt P00519, H396P)
T1 construct: purchased Eurofins (KinaseProfiler)
Experimental: (§1) Kinome-wide selectivity of rilpivirine was measured using the kinase screening and profiling service of Eurofins Scientific (Le bois l’Evêque 86600. Celle-Lévescault, France) and Ki values were determined using radioisotope-based assays by Reaction Biology Corporation (Malvern, PA, USA). The experimental details of Eurofin Scientific and Reaction Biology services for relevant assays are available at https://www.eurofinsdiscoveryservices.com/services/in-Vitro-assays/kinases/kinase-profiler (accessed on 7 July 2021) and https://www.reactionbiology.com (accessed on 7 July 2021), respectively. Ki values were estimated from the corresponding IC50 values using the Cheng–Prusoff equation [21] and the Km (ATP) of individual kinase was used for IC50 determination.

Abl(T315I)(h) = target: T2, Abl(T315I)(h) (Homo sapiens, UniProt P00519, T315I)
T2 construct: purchased Eurofins (KinaseProfiler)
Experimental: as §1

Abl(Y253F)(h) = target: T3, Abl(Y253F)(h) (Homo sapiens, UniProt P00519, Y253F)
T3 construct: purchased Eurofins (KinaseProfiler)
Experimental: as §1

Abl(m) = target: T4, Abl(m) (Mus musculus, UniProt P00520)
T4 construct: purchased Eurofins (KinaseProfiler)
Experimental: as §1

BIKe(h) = target: T5, BIKe(h) (Homo sapiens, UniProt Q9NSY1)
T5 construct: purchased Eurofins (KinaseProfiler)
Experimental: as §1

CDK13/cyclinK(h) = target: T6, CDK13/cyclinK(h) (Homo sapiens, UniProt Q14004)
T6 construct: purchased Eurofins (KinaseProfiler)
Experimental: as §1

CDK6/cyclinD3(h) = target: T7, CDK6/cyclinD3(h) (Homo sapiens, UniProt Q00534)
T7 construct: purchased Eurofins (KinaseProfiler)
Experimental: as §1

CDK7/cyclinH/MAT1(h) = target: T8, CDK7/cyclinH/MAT1(h) (Homo sapiens, UniProt P50613)
T8 construct: purchased Eurofins (KinaseProfiler)
Experimental: as §1

CHK2(h) = target: T9, CHK2(h) (Homo sapiens, UniProt O96017)
T9 construct: purchased Eurofins (KinaseProfiler)
Experimental: as §1

CK1ε(h) = target: T10, CK1ε(h) (Homo sapiens, UniProt P49674)
T10 construct: purchased Eurofins (KinaseProfiler)
Experimental: as §1

CaMKIγ(h) = target: T11, CaMKIγ(h) (Homo sapiens, UniProt Q96NX5)
T11 construct: purchased Eurofins (KinaseProfiler)
T11 sequence (Q96NX5 whole entry): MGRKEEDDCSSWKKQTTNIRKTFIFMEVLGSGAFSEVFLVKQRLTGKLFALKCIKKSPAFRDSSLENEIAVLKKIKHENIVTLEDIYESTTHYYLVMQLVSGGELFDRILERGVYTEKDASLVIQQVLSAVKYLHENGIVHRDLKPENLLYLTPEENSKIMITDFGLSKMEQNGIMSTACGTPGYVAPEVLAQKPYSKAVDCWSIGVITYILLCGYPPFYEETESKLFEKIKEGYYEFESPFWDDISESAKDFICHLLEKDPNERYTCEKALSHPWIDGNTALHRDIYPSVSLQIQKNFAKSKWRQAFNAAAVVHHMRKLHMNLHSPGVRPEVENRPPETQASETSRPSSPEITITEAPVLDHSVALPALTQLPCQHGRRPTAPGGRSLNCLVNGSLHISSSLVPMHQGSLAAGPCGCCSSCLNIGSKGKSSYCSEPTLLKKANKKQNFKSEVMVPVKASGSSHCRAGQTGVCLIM
Experimental: as §1

CaMKK2(h) = target: T12, CaMKK2(h) (Homo sapiens, UniProt Q96RR4)
T12 construct: purchased Eurofins (KinaseProfiler)
Experimental: as §1

Cdc7/cyclinB1(h) = target: T13, Cdc7/cyclinB1(h) (Homo sapiens, UniProt O00311)
T13 construct: purchased Eurofins (KinaseProfiler)
Experimental: as §1

ChaK1(h) = target: T14, ChaK1(h) (Homo sapiens, UniProt Q96QT4)
T14 construct: purchased Eurofins (KinaseProfiler)
Experimental: as §1

DAPK1(h) = target: T15, DAPK1(h) (Homo sapiens, UniProt P53355)
T15 construct: purchased Eurofins (KinaseProfiler)
Experimental: as §1

DAPK2(h) = target: T16, DAPK2(h) (Homo sapiens, UniProt Q9UIK4)
T16 construct: purchased Eurofins (KinaseProfiler)
T16 sequence (Q9UIK4 whole entry): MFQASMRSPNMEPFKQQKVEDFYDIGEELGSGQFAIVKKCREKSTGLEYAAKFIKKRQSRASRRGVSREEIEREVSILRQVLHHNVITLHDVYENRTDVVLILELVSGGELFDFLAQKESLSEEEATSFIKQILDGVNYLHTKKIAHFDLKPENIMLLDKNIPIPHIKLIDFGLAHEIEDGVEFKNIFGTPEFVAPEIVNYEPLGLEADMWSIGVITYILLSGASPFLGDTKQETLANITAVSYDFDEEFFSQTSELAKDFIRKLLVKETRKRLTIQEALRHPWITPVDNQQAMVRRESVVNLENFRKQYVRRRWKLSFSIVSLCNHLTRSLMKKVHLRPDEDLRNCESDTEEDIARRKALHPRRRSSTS
Experimental: as §1

DYRK2(h) = target: T17, DYRK2(h) (Homo sapiens, UniProt Q92630)
T17 construct: purchased Eurofins (KinaseProfiler)
Experimental: as §1

EGFR(L858R)(h) = target: T18, EGFR(L858R)(h) (Homo sapiens, UniProt P00533, L858R)
T18 construct: purchased Eurofins (KinaseProfiler)
Experimental: as §1

Fes(h) = target: T19, Fes(h) (Homo sapiens, UniProt P07332)
T19 construct: purchased Eurofins (KinaseProfiler)
Experimental: as §1

HIPK1(h) = target: T20, HIPK1(h) (Homo sapiens, UniProt Q86Z02)
T20 construct: purchased Eurofins (KinaseProfiler)
T20 sequence (Q86Z02 whole entry): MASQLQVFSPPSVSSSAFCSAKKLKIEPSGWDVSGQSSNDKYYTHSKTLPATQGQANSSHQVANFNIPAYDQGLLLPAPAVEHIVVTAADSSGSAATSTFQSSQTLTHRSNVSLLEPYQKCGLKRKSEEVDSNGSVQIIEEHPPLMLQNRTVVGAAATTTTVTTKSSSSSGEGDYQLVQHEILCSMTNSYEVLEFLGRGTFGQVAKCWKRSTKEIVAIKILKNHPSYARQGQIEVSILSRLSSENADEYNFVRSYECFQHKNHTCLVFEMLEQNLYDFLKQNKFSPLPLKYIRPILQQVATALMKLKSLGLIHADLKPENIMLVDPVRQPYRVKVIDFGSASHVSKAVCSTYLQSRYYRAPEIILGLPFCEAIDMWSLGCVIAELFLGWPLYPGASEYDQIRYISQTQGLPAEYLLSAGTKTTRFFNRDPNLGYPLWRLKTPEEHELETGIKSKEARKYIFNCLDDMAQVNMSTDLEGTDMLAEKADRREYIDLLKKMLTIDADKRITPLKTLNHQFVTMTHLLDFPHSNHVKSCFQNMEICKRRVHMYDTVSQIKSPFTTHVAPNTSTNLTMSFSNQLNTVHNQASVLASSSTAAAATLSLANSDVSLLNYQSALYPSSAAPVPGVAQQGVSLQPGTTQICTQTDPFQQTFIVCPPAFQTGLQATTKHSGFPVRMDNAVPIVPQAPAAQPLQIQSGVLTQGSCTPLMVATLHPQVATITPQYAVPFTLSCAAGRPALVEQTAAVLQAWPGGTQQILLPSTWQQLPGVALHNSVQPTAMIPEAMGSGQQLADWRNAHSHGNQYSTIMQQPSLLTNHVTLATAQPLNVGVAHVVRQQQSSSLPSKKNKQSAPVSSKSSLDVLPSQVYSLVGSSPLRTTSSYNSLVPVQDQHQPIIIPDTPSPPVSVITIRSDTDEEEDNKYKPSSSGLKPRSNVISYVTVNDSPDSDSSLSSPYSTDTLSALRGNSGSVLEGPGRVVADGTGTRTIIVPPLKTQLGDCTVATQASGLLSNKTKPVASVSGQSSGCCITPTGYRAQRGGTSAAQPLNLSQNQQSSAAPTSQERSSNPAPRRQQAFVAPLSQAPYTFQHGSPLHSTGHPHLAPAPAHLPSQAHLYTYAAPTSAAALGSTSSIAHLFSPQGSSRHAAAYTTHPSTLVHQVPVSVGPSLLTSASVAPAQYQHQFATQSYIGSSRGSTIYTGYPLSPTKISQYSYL
Experimental: as §1

ICK(h) = target: T21, ICK(h) (Homo sapiens, UniProt Q9UPZ9)
T21 construct: purchased Eurofins (KinaseProfiler)
Experimental: as §1

IRAK1(h) = target: T22, IRAK1(h) (Homo sapiens, UniProt P51617)
T22 construct: purchased Eurofins (KinaseProfiler)
Experimental: as §1

MAK(h) = target: T23, MAK(h) (Homo sapiens, UniProt P20794)
T23 construct: purchased Eurofins (KinaseProfiler)
T23 sequence (P20794 whole entry): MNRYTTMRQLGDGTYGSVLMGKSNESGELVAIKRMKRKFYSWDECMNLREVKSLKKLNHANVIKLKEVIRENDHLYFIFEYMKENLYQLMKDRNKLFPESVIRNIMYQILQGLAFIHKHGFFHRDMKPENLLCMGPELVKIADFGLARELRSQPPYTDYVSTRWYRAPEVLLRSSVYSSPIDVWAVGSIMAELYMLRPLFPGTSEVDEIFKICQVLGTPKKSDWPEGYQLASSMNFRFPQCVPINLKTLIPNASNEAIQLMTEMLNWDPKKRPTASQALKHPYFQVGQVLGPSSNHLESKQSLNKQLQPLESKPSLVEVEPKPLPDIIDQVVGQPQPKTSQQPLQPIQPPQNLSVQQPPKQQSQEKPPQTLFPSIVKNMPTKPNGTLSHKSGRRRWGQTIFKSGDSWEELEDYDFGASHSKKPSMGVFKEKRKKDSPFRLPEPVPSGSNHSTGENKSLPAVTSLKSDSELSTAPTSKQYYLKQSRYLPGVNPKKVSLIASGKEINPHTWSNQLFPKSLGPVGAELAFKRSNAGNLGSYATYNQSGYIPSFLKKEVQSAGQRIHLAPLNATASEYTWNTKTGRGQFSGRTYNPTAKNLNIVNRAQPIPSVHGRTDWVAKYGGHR
Experimental: as §1

MAPK2(m) = target: T24, MAPK2(m) (Mus musculus, UniProt P63085)
T24 construct: purchased Eurofins (KinaseProfiler)
Experimental: as §1

MELK(h) = target: T25, MELK(h) (Homo sapiens, UniProt Q14680)
T25 construct: purchased Eurofins (KinaseProfiler)
Experimental: as §1

MINK(h) = target: T26, MINK(h) (Homo sapiens, UniProt Q8N4C8)
T26 construct: purchased Eurofins (KinaseProfiler)
Experimental: as §1

MYLK2(h) = target: T27, MYLK2(h) (Homo sapiens, UniProt Q9H1R3)
T27 construct: purchased Eurofins (KinaseProfiler)
Experimental: as §1

PDK1(h) = target: T28, PDK1(h) (Homo sapiens, UniProt O15530)
T28 construct: purchased Eurofins (KinaseProfiler)
Experimental: as §1

Plk1(h) = target: T29, Plk1(h) (Homo sapiens, UniProt P53350)
T29 construct: purchased Eurofins (KinaseProfiler)
Experimental: as §1

Pyk2(h) = target: T30, Pyk2(h) (Homo sapiens, UniProt Q14289)
T30 construct: purchased Eurofins (KinaseProfiler)
Experimental: as §1

Rse(h) = target: T31, Rse(h) (Homo sapiens, UniProt Q06418)
T31 construct: purchased Eurofins (KinaseProfiler)
Experimental: as §1

Rsk3(h) = target: T32, Rsk3(h) (Homo sapiens, UniProt Q15349)
T32 construct: purchased Eurofins (KinaseProfiler)
Experimental: as §1

SGK(h) = target: T33, SGK(h) (Homo sapiens, UniProt O00141)
T33 construct: purchased Eurofins (KinaseProfiler)
Experimental: as §1

TBK1(h) = target: T34, TBK1(h) (Homo sapiens, UniProt Q9UHD2)
T34 construct: purchased Eurofins (KinaseProfiler)
Experimental: as §1

TNIK(h) = target: T35, TNIK(h) (Homo sapiens, UniProt Q9UKE5)
T35 construct: purchased Eurofins (KinaseProfiler)
Experimental: as §1

Txk(h) = target: T36, Txk(h) (Homo sapiens, UniProt P42681)
T36 construct: purchased Eurofins (KinaseProfiler)
Experimental: as §1

WNK2(h) = target: T37, WNK2(h) (Homo sapiens, UniProt Q9Y3S1)
T37 construct: purchased Eurofins (KinaseProfiler)
T37 sequence (Q9Y3S1 whole entry): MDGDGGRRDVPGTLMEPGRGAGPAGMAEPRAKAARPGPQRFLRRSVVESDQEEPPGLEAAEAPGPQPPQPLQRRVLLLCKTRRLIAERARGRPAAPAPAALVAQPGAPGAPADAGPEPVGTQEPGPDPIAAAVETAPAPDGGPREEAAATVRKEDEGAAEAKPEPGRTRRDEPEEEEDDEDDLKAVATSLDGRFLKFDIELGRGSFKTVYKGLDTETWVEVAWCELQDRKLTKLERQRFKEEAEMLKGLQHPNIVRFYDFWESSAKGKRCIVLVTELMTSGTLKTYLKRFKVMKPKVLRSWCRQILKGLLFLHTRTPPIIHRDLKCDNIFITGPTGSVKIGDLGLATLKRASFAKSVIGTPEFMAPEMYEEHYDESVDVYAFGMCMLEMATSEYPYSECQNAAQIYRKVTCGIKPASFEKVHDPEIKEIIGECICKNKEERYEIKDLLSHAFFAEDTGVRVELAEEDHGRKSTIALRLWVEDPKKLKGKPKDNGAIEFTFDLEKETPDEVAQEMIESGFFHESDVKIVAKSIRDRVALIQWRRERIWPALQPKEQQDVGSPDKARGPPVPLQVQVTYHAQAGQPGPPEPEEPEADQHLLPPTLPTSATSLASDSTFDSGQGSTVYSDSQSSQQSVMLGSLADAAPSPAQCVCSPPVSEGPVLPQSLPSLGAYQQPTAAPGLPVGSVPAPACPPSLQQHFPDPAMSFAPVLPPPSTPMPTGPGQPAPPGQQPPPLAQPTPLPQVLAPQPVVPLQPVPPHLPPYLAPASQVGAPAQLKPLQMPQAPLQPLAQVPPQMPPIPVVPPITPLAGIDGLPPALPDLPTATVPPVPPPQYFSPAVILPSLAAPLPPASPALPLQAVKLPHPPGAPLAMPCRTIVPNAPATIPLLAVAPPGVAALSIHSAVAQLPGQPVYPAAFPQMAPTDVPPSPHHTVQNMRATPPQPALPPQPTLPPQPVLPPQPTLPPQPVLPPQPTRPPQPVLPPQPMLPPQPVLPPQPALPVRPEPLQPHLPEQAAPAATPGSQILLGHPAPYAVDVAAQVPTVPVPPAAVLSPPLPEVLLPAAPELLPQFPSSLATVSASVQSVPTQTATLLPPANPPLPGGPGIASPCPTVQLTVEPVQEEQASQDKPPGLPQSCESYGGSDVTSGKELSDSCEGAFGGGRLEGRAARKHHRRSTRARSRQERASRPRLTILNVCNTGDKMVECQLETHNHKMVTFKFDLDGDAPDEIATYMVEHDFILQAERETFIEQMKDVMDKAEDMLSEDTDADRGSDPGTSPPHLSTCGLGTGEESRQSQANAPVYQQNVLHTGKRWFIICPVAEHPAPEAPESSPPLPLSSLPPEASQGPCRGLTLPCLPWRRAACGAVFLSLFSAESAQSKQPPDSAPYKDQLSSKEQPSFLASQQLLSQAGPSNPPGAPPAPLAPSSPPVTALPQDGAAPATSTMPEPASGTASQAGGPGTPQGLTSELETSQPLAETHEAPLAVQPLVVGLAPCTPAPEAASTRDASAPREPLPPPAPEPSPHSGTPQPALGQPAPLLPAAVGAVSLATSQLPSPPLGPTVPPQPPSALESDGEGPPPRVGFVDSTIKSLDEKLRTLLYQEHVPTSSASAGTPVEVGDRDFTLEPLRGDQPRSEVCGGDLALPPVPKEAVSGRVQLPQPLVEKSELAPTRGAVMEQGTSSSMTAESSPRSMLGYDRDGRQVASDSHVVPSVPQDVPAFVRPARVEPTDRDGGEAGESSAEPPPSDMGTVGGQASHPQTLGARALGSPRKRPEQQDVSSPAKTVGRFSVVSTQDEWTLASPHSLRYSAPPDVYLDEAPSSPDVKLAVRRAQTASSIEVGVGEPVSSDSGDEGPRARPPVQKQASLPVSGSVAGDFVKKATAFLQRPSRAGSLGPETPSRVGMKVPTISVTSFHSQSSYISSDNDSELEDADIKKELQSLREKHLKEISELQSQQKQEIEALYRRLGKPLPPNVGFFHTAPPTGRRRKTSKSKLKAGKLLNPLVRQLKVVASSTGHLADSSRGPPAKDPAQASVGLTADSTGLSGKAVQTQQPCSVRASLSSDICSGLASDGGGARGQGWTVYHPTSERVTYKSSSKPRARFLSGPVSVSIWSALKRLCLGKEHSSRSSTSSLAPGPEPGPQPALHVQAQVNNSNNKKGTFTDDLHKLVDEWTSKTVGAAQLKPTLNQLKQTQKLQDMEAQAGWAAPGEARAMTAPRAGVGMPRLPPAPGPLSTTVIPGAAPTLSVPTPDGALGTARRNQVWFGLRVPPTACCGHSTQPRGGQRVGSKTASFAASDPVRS
Experimental: as §1

cKit(h) = target: T38, cKit(h) (Homo sapiens, UniProt P10721)
T38 construct: purchased Eurofins (KinaseProfiler)
Experimental: as §1

mTOR(h) = target: T39, mTOR(h) (Homo sapiens, UniProt P42345)
T39 construct: purchased Eurofins (KinaseProfiler)
Experimental: as §1

For `Cc1cc(/C=C/C#N)cc(C)c1Nc1ccnc(Nc2ccc(C#N)cc2)n1` [rilpivirine, (E)-4-((4-((4-(2-cyanoethenyl)-2,6-dimethylphenyl)amino)pyrimidin-2-yl)amino)benzonitrile], the remaining activity at 1 µM (Abl (H396P) (h)) was 71%, the remaining activity at 1 µM (Abl(T315I)(h)) was 93% and the remaining activity at 1 µM (Abl(Y253F)(h)) was 58%. The remaining activity at 1 µM (Abl(m)) was 63%, the remaining activity at 1 µM (BIKe(h)) was 56% and the remaining activity at 1 µM (CDK13/cyclinK(h)) was 82%. For the same molecule, the remaining activity at 1 µM (CDK6/cyclinD3(h)) was 96%, the remaining activity at 1 µM (CDK7/cyclinH/MAT1(h)) was 78% and the remaining activity at 1 µM (CHK2(h)) was 93%. The remaining activity at 1 µM (CK1ε(h)) was 116%, the remaining activity at 1 µM (CaMKIγ(h)) was 95% and the remaining activity at 1 µM (CaMKK2(h)) was 109%. The remaining activity at 1 µM (Cdc7/cyclinB1(h)) was 93%, the remaining activity at 1 µM (ChaK1(h)) was 94% and the remaining activity at 1 µM (DAPK1(h)) was 83%. The remaining activity at 1 µM (DAPK2(h)) was 80%, the remaining activity at 1 µM (DYRK2(h)) was 89% and the remaining activity at 1 µM (EGFR(L858R)(h)) was 90%. The remaining activity at 1 µM (Fes(h)) was 85%, the remaining activity at 1 µM (HIPK1(h)) was 97% and the remaining activity at 1 µM (ICK(h)) was 99%. It also gave a remaining activity at 1 µM (IRAK1(h)) of 84%, a remaining activity at 1 µM (MAK(h)) of 84% and a remaining activity at 1 µM (MAPK2(m)) of 92%. It also gave a remaining activity at 1 µM (MELK(h)) of 56%, a remaining activity at 1 µM (MINK(h)) of 80% and a remaining activity at 1 µM (MYLK2(h)) of 79%. The remaining activity at 1 µM (PDK1(h)) was 85%, the remaining activity at 1 µM (Plk1(h)) was 107% and the remaining activity at 1 µM (Pyk2(h)) was 81%. The remaining activity at 1 µM (Rse(h)) was 66%, the remaining activity at 1 µM (Rsk3(h)) was 86% and the remaining activity at 1 µM (SGK(h)) was 97%. For the same molecule, the remaining activity at 1 µM (TBK1(h)) was 72%, the remaining activity at 1 µM (TNIK(h)) was 50% and the remaining activity at 1 µM (Txk(h)) was 79%. For the same molecule, the remaining activity at 1 µM (WNK2(h)) was 80%, the remaining activity at 1 µM (cKit(h)) was 99% and the remaining activity at 1 µM (mTOR(h)) was 97%.

Source: PMC9954146, “Anti-Leukaemic Activity of Rilpivirine Is Mediated by Aurora A Kinase Inhibition” (Cancers, 2023)
